How the values were obtained:
Caspase-3 [1] = biological target: T1, Caspase-3 (Homo sapiens, UniProt P42574); test: Inhibitory concentration of compound required against Caspase-3 compared to acylated dipeptides
T1 sequence (P42574 whole entry): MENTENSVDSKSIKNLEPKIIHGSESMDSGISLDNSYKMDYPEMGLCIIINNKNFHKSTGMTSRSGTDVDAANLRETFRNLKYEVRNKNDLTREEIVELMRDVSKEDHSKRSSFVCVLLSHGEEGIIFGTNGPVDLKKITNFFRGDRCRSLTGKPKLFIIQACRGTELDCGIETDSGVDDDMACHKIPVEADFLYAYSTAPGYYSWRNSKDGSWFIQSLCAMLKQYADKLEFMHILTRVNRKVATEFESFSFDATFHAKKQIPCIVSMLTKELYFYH

Caspase-6 [2] = biological target: T2, Caspase-6 (Homo sapiens, UniProt P55212); test: Inhibitory concentration of compound required against Caspase-6 compared to acylated dipeptides
T2 sequence (P55212 whole entry): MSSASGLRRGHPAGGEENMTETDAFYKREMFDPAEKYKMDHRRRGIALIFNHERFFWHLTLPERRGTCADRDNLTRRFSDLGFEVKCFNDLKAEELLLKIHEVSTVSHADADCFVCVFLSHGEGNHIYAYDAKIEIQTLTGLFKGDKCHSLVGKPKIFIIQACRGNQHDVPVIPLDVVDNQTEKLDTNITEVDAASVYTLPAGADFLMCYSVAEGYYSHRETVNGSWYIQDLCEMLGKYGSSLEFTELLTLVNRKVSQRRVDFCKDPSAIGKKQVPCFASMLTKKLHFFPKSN

Caspase-6 [3] = biological target: T2, Caspase-6; test: Inhibitory concentration required against caspase-6
Caspase-1 (Mus musculus) [4] = biological target: Caspase-1 (Mus musculus) (UniProt P29452)
Caspase-7 [5] = biological target: T3, Caspase-7 (Homo sapiens, UniProt P55210); test: Inhibitory concentration against caspase-7
T3 sequence (P55210 whole entry): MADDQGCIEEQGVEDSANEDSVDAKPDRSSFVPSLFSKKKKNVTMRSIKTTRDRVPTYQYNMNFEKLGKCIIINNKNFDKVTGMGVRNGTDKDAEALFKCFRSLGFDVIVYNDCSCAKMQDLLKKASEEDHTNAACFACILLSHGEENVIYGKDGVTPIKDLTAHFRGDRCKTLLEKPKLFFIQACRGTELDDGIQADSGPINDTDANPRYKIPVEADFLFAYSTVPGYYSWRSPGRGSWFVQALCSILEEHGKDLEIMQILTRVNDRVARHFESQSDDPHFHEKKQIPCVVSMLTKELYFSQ

Caspase-3 [6] = biological target: T1, Caspase-3; test: Inhibitory concentration against caspase-3
Caspase-8 [7] = biological target: T4, Caspase-8 (Homo sapiens, UniProt Q14790); test: Inhibitory concentration of compound required against Caspase-8 compared to acylated dipeptides
Caspase-7 [8] = biological target: T3, Caspase-7; test: Inhibitory concentration of compound required against Caspase-7 compared to acylated dipeptides
Caspase-1 (Mus musculus) [9] = biological target: Caspase-1 (Mus musculus) (UniProt P29452); test: Inhibitory concentration of compound required against Caspase-1 compared to acylated dipeptides
Caspase-8 [10] = biological target: T4, Caspase-8; test: Inhibitory concentration against caspase-8

T4 sequence (Q14790 217-374 limits assumed): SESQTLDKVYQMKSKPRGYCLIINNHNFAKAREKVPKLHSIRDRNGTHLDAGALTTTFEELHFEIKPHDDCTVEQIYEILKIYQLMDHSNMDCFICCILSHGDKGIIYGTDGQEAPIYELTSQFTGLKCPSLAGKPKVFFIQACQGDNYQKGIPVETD
T4 sequence (Q14790 385-479 limits assumed): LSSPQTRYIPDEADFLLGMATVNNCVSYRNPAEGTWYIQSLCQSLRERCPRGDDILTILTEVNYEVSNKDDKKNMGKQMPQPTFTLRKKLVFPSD
Chain of Caspase-1 (Mus musculus) (P29452 whole entry, looked up): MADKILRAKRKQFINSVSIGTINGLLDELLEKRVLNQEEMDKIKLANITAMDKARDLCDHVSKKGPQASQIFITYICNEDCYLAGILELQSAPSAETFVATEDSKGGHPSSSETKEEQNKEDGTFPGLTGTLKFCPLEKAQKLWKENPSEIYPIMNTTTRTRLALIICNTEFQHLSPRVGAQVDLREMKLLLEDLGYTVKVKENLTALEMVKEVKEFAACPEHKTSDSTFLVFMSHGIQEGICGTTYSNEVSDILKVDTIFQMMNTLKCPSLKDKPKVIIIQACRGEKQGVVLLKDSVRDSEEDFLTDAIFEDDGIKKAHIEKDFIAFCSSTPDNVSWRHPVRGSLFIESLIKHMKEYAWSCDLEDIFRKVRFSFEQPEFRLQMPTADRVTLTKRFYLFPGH

SMILES	IC50 (Caspase-3 [1]) [µM]	IC50 (Caspase-6 [2]) [µM]	IC50 (Caspase-6 [3]) [µM]	IC50 (Caspase-1 (Mus musculus) [4]) [µM]	IC50 (Caspase-7 [5]) [µM]	IC50 (Caspase-3 [6]) [µM]	IC50 (Caspase-8 [7]) [µM]	IC50 (Caspase-7 [8]) [µM]	IC50 (Caspase-1 (Mus musculus) [9]) [µM]	IC50 (Caspase-8 [10]) [µM]
CC(C)C[C@H](NC(=O)[C@H](CCC(=O)O)NC(=O)OCc1ccccc1)C(=O)N[C@H]1CC(=O)OC1O (some centres undefined)	0.0023						0.03	0.01	0.0065	
CC(C)C[C@H](NC(=O)[C@H](Cc1ccccc1)NC(=O)OCc1ccccc1)C(=O)N[C@H]1CC(=O)OC1O (some centres undefined)	0.137	2.53					8.7	0.68	0.043	
CC(C)C[C@@H](NC(=O)OCc1ccccc1)C(=O)C[C@H]1CC(=O)OC1O (some centres undefined)			14	18.8	21.9	3.47				50
CC(=O)N[C@@H](C(=O)O)C(=O)N[C@@H](CCC(=O)O)C(=O)N[C@H](C(=O)N[C@H]1CC(=O)OC1O)C(C)C (some centres undefined)	0.0035	0.01					0.08	0.01	0.05	
CC(C)C[C@H](NC(=O)Cc1ccc(-c2ccccc2)cc1)C(=O)N[C@H]1CC(=O)OC1O (some centres undefined)			> 10	7.43		5.06		> 10		> 10

Now from value to compound:

IC50 (Caspase-3 [1]) [µM]	IC50 (Caspase-6 [2]) [µM]	IC50 (Caspase-6 [3]) [µM]	IC50 (Caspase-1 (Mus musculus) [4]) [µM]	IC50 (Caspase-7 [5]) [µM]	IC50 (Caspase-3 [6]) [µM]	IC50 (Caspase-8 [7]) [µM]	IC50 (Caspase-7 [8]) [µM]	IC50 (Caspase-1 (Mus musculus) [9]) [µM]	IC50 (Caspase-8 [10]) [µM]	SMILES
0.94	18.6	18.6	10	8.87	0.944	10	8.87	10	> 10	CC(C)C[C@H](NC(=O)COc1ccc2ccccc2c1)C(=O)N[C@H]1CC(=O)OC1O (some centres undefined)
		21.4	0.141	3.61	0.357				3.04	CC(C)C[C@H](NC(=O)COc1c(Cl)cc(Cl)c2ccccc12)C(=O)N[C@H]1CC(=O)OC1O (some centres undefined)
		20.5	1.9	12	0.763				7.53	CC(C)C[C@H](NC(=O)COc1ccc(-c2ccccc2)cc1)C(=O)N[C@H]1CC(=O)OC1O (some centres undefined)
		32.4	0.843	4.16	0.375				4.14	Cc1ccc2ccccc2c1OCC(=O)N[C@@H](CC(C)C)C(=O)N[C@H]1CC(=O)OC1O (some centres undefined)

— ChEMBL document CHEMBL1134914, “Acyl dipeptides as reversible caspase inhibitors. Part 1: initial lead optimization” (Bioorg Med Chem Lett, 2002)
